Reference: patent US9656981B2, “Peripherally-acting cannabinoid receptor agonists for chronic pain” (The Regents of the University of California, priority 2012, dated 2017)
Entries after “also recorded” stand apart in the source; their conditions may differ. Where two headings read alike, the source gives them in different places.

Experiments:
[1] = tested on: rats; assay: Rotarod test of the tetrad; assay type: in vivo, rat
Method: Rats were tested for motor function and the ataxic effects of novel drugs as described previously^151-153. To determine drug effects on motor coordination, rats are trained 72 h before the test (3 sessions 24 h apart) to remain for at least 180 s on a rotarod revolving at an acceleration of 4-40 revs over 5 min). Rats are tested immediately before vehicle or drug injections and tested again at 2, 6, 24 and 48 hrs after injection. The time for which the rats are able to remain on the rotarod is recorded up to a cut-off of 5 min.

[2] = tested on: rats; assay: Catalepsy (ring) test of the tetrad; assay type: in vivo, rat
Method: Catalepsy (ring) test. Catalepsy was determined with a ring immobility test^154, modified for rats^139, 153. Rats are placed with their forepaws on a horizontal metal ring (12 cm diameter) at a height that allows their hindpaws to just touch the bench surface. Immobility is recorded as the time for the rat to move off the ring with a 100 s cutoff. Rats are tested before vehicle/drug injections and again at various times after injection.

[3] = tested on: rats; assay: Hypothermia test of the tetrad; assay type: in vivo, rat
Method: Rats are acclimated to a plastic restrainer apparatus (Model RTV-180 Braintree Scientific Inc.) on the day of testing by placing them in the restrainer twice for 5 min separated by 20 min. Baseline core temperature is taken before treatment, and the rectal temperature is measured again at various times after injection of the CB1R ligands.

[4] = molecular target: human CB1R (hCB1R) (Homo sapiens, UniProt P21554); assay: human CB1R (hCB1R) calcium flux assay; assay type: cell-based; conditions: Table 1; read-out: Ca Flux % Emax
Chain of human CB1R (hCB1R) (P21554 whole entry): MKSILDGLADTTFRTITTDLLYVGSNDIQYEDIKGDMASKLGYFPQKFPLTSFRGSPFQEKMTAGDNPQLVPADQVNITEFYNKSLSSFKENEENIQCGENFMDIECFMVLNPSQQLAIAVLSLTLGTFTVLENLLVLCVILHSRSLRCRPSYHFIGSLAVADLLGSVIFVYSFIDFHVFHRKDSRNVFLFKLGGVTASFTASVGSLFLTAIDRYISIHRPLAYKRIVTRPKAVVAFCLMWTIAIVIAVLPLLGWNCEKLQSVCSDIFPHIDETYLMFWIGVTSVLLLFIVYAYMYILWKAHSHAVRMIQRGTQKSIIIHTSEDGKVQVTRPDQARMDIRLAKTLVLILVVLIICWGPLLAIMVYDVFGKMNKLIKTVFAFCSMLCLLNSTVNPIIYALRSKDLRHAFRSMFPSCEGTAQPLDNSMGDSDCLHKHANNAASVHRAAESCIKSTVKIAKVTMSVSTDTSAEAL
Excerpt: Compounds were first screened for: a) CB1R and CB2R binding, b) CB1R agonist activity using the human CB1R (hCB1R) calcium flux assay, and c) BBB permeability using the Madin-Darby canine kidney (MDCK-MDR1) cell line assay.
The calcium 3 dye assays were run according to manufacturer's specifications (http://www.moleculardevices.com/Products/Assay-Kits/GPCRs/FLIPR-Calcium.html) and as reported in our previous publications^112,113. Briefly, wells of black clear-bottom 96-well tissue culture-treated plates are seeded with 20,000 cells the afternoon before assay. The day of assay, the cells are incubated with the Ca^2+ indicator dye for 1 hr @ 37° C. For antagonist assays, the test compound is preincubated with the cells during the last 10 min of the dye incubation. Basal or unstimulated fluorescence intensity is recorded in the FlexStation @ 37° C. for 13 sec followed by the addition of test compound or CP 55,940 (depending on the assay endpoint). Fluorescence intensity is recorded for an additional 47 sec. The effect of test compound in each well is determined by subtracting the minimum from the maximum fluorescence during the 47-sec recording period.

[5] = tested on: rats; assay: Tail-flick test of the tetrad; assay type: in vivo, rat; conditions: 0.3 mg/kg, intraperitoneal
Excerpt: A modified Hargreaves apparatus (Model 390, IITC Instr.) is used to measure tail-flick latency (TFL). Radiant heat is directed to a point 3 cm from the tail tip and the TFL observed and timed with a photo cell counter. The intensity of the radiant heat is adjusted for a baseline TFL of approximately 5-7 seconds for naïve rats, with a 25 s cutoff set to avoid tissue damage (see FIG. 3).

[6] = Pharmacokinetic profiling: plasma, CSF and brain levels by LC-MS/MS; assay type: in vivo, rat
Method: Pharmacokinetic profiling of novel compounds is prerequisite to their clinical development. […] Plasma, cerebrospinal fluid (CSF), and brain samples were analyzed by LC-MS/MS and quantified using standard curves prepared from appropriate drug dilutions in fluids obtained from untreated animals.
Measurements of brain levels are a must for putative peripherally-restricted analogs. Total brain levels include drug partitioned into brain lipids+unbound drug in equilibrium with extracellular fluid. Therefore, cerebrospinal fluid (CSF)/plasma ratios are considered to be more precise estimates of brain penetration of a given drug because of the continuity of CSF with extracellular space^174. However, both measures are needed to confirm minimal CNS access and to compare with other reported peripherally-restricted CB1R ligands^110, 111. […] Plasma, brain and CSF samples were obtained at ˜75 min after PrNMI administration. Data presented as mean±SEM, n=3 rats.

[7] = tested on: sciatic nerve entrapment (SNE) neuropathy; assay: SNE neuropathy, mechanical allodynia (von Frey); assay type: in vivo, rat
Method: The effectiveness of CBR agonists was tested for alleviating the painful symptoms of neuropathy induced by unilateral sciatic nerve entrapment (SNE)^131. The peripheral neuropathy induced by SNE is highly comparative to that of chronic constriction injury (CCI), which uses chromic gut suture materials instead of polyethylene cuffs^132. […] This increased excitability is at least in part attributable to injury-induced post-transcriptional transport of the voltage-gated sodium channel 1.8 (NaV1.8) mRNA, axonal accumulation of NaV1.8 mRNA, and its local protein translation leading to the increased NaV1.8 functional expression in injured nerve^136. The hyperexcitability and ectopic burst discharge of primary sensory neurons are widely considered to be the major contributors to pain symptomatology of peripheral neuropathy models. The SNE-induced mechanical allodynia effectively models the most common complaint of human neuropathy patients of dynamic mechanical allodynia. Behavioral measurements of mechanical sensitivity were conducted before and after induction of SNE as follows:
(§1) Rats are placed in a plastic-walled cage (10×20×13 cm) with a metal mesh floor (0.6×0.6 cm holes) and allowed to acclimate for 10 min. The amount of pressure (g) needed to evoke a hindpaw withdrawal response is measured 4 times on each paw separated by 30-s intervals using a von Frey-type digital meter (Model 1601C, IITC Instr.). Results of 4 tests/session are averaged for each paw.

[8] = molecular target: CB1R (Homo sapiens, UniProt P21554); assay: CB1R radioligand displacement binding assay (CP55940 radioligand)
Chain of CB1R (P21554 whole entry): as above
Method: Heterologous competition binding assays were performed to calculate receptor affinities. Unlabeled SR141716 or SR144528 were used as appropriate controls for non-specific binding (NSB) in the assay. Calculation of the equilibrium dissociation constant (Ki) was performed using the Cheng-Prusoff equation.

[9] = tested on: CFA-induced mechanical allodynia; assay: CFA chronic inflammation, mechanical allodynia; assay type: in vivo, rat; conditions: systemic injection
Method: as §1
Compounds were tested in a well-established model of chronic inflammation. In this model, unilateral intraplantar injection of complete Freund's adjuvant (CFA) leads to long-lasting symptoms of mechanical allodynia and thermal hyperalgesia of the affected hindpaw, which is alleviated by local, […] administration of CB1R ligands^125, 155. […] This is consistent with the higher CB1R affinity of our novel compound 13339-145-35 (Compound 9, see Table 1) compared with the AstraZeneca AZ11713908 compound^125.

[10] = 0.3 mg/kg, intraperitoneal, listed as 13339-145-35

## CCCc1ccc(/C=C2\C=C(CCN3CCOCC3)c3ccccc32)c2ccccc12 [Compound 9, 4-{2-[(1E)-1-[(4-propylnaphthalen-1-yl)methylidene]-1H-inden-3-yl]ethyl} morpholine]
[1]; [10]
  effect in the rotarod assay: no effect; also recorded: complete lack of effects
[1]; 2-3 hr
  Rotarod % change from pre-drug (0.3 mg/kg) at 2-3 hr: 0%
[2]; [10]
  effect in the catalepsy assay: no effect; also recorded: complete lack of effects
[2]; 1-3 hrs
  Catalepsy % change from pre-drug (0.3 mg/kg) at 1-3 hrs: 0%
[3]; 0.3 mg/kg, intraperitoneal
  effect in the hypothermia assay: no effect
[3]; 2-3 hr
  Hypothermia % change from predrug (0.3 mg/kg) at 2-3 hr: 0%
[4]
  Emax: 108%
[5]
  effect in the tail-flick assay: small effect
[6]; plasma, brain and CSF samples
  penetration into the CNS after systemic administration: minimal penetration
[6]; rat, CSF and plasma, intraperitoneal, 0.3 mg/kg, i.p., ~75 min after administration, mean±SEM, n=3 rats
  Kp: 0.001 ± 0.0005
[6]; rat, brain and plasma, ip, 0.3 mg/kg, i.p., ~75 min after administration, mean±SEM, n=3 rats
  Kp at 1.25 h: 0.182 ± 0.043
[7]; 0.3 mg/kg, systemic injection
  effect on SNE-induced mechanical allodynia (ipsilateral hindpaw withdrawal thresholds): large, reversible increases
[7]; 0.3 mg/kg, 2-3 h
  SNE Neuropath Assay-% return to pre-drug (0.3 mg/kg) contralateal threshold at 2-3 h: 110%
[7]; 0.3 mg/kg, hindpaw contralateral to SNE
  effect on contralateral hindpaw withdrawal thresholds: small, but significant increases
[7]; 0.6 mg/kg
  effect on SNE-induced mechanical allodynia: Suppression of SNE-induced mechanical allodynia
[7]; 3 mg/kg, gavage
  suppression of neuropathy symptoms after oral administration: effective in suppressing neuropathy symptoms
[7]; 3 mg/kg, gavage, 24 hr
  anti-allodynic effects at the 24 hr time point after oral administration: potent anti-allodynic effects
[8]
  Ki: 1 nM
[8]; read-out: CB1R binding affinity (Ki)
  Ki: 1.18 nM
[9]
  effect on CFA-induced mechanical allodynia: small but significant relief
